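Five concentrations, 48 hours, 96-well plates. The concentration for 50% growth inhibition is given as GI50. TGI marks complete inhibition of growth.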 *1 amine or outer side, *2 acyl side, *3 side chain or, on linkers, in order; H or OH if unused. Where a SMILES comes first, the peptide text is derived from it. Bridges are numbered along the chain shown (N, C = ends). Roman numbers before positions name the chains, in order. [ ]: non-standard residue; d: D form. ξ: configuration not given here. X54 = N=C(N)NCCC[C@@H](NC(=N)CCCCCCC(=N)N[C@H](CCCNC(=N)N)C(=O)[*:2])C(=O)[*:1]; dIgl = N[C@@H](C(=O)O)C1Cc2ccccc2C1; Hyp = O=C(O)[C@@H]1C[C@@H](O)CN1; ξIgl = NC(C(=O)O)C1Cc2ccccc2C1; ξOic = O=C(O)C1CC2CCCCC2N1; ξR = N=C(N)NCCCC(N)C(=O)O; ξP = O=C(O)C1CCCN1; ξS = NC(CO)C(=O)O

The record followed here is PubChem BioAssay (NCI).

Assay in all cases: DTP human tumour cell line panel, 48 h
For assay [1], the system named is NCI-H522 lung.
Assay [2] has as its system SF-295 CNS.
Assay [3] has as its system U251 CNS.
Assay [4] has as its system KM12 colon.
Assay [5] has as its system SR leukemia.
The test system of assay [6] is HCC-2998 colon.
Assay [7] has as its system HT29 colon.
Assay [8] relates to NCI-H460 lung.
For assay [9], the system named is OVCAR-4 ovarian.

As to `N#Cc1c(N)oc(-c2ccc([N+](=O)[O-])cc2)c1C#N`, the TGI (in general, the concentration giving total growth inhibition) is 60.3 µM in assay [1]; 55.3 µM in assay [2]; above 100 µM in assay [3]; above 100 µM in [4]; above 100 µM in assay [5]; above 100 µM in [6]. This compound also showed a TGI in assay [7] above 100 µM.

Turning to `O=c1ccc2ccc(CBr)cc2o1`, the TGI amounted to 2.55 µM in assay [1]; 25.3 µM in assay [8]; 28.7 µM in [2]; 3.36 µM in [3]; 5.05 µM in assay [5]; 9.53 µM in assay [6]. The TGI in [7] turned out to be 6.41 µM.

On to `CN1CCN(C(=O)CCC(=O)Nc2cc3c(c4ccccc24)-c2ccc4ccccc4c2C3)CC1`, for which the TGI in assay [1] stood at 3.2 µM; in assay [8] it was 3.72 µM; in assay [2] it was 3.4 µM; in assay [3], 4.11 µM; in [4], 3.2 µM; in assay [9] it was 3.08 µM. The TGI in assay [6] turned out to be 2.7 µM; in assay [7], 3.23 µM.

Consider `N=C(N)NCCCC(NC(=O)C1CC2CCCCC2N1C(=O)[C@H](NC(=O)C(CO)NC(=O)C(NC(=O)CNC(=O)[C@@H]1C[C@@H](O)CN1C(=O)C1CCCN1C(=O)C(CCCNC(=N)N)NC(=O)[C@@H](CCCNC(=N)N)NC(=N)CCCCCCC(=N)N[C@H](CCCNC(=N)N)C(=O)NC(CCCNC(=N)N)C(=O)N1CCCC1C(=O)N1C[C@H](O)C[C@H]1C(=O)NCC(=O)NC(C(=O)NC(CO)C(=O)N[C@@H](C(=O)N1C(C(=O)NC(CCCNC(=N)N)C(=O)O)CC2CCCCC21)C1Cc2ccccc2C1)C1Cc2ccccc2C1)C1Cc2ccccc2C1)C1Cc2ccccc2C1)C(=O)O` (stereo partly drawn) (I: [ξR][ξP][Hyp]G[ξIgl][ξS][dIgl][ξOic][ξR]-OH / II: [ξR][ξP][Hyp]G[ξIgl][ξS][dIgl][ξOic][ξR]-OH; linker I:N-II:N via X54), for which the TGI in [1] was above 10 µM; in assay [8], 3.87 µM; in assay [2], 4.3 µM; in [3] it was 5.35 µM; in [4], 4.13 µM; in assay [9], 4.56 µM. The values for the TGI in [5] and in assay [7] were 2.95 µM and 2.12 µM, respectively.

As to `COc1cc(C2c3cc4c(cc3OC(NNc3ccccc3)C2C)OCO4)cc(OC)c1OC` (stereo not drawn), the TGI is 4.72 µM in [1]; 16.4 µM in assay [8]; 5.11 µM in [2]; 13.2 µM in [3]; 38 µM in [4]; above 100 µM in [9]. In addition, the TGI in assay [6] was found to be 3.96 µM; in [7], 6.61 µM.

For the compound `Cc1ccc(Cc2cc(N3CCN(c4cccc(Cl)c4)CC3)nnc2C)cc1`, the TGI was 81.5 µM in assay [1]; above 100 µM in assay [8]; above 100 µM in assay [2]; above 100 µM in [3]; above 100 µM in assay [4]; above 100 µM in [9]. In addition, the TGI in assay [7] was 81.2 µM.

For `COC(=O)Nc1nc2ccc(S(=O)(=O)Nc3ccccn3)cc2[nH]1`, the TGI in assay [1], in assay [8], in assay [2], in [3], in assay [4] and in assay [9] was above 100 µM in each case. Moreover, the TGI in assay [5] is 64.1 µM; in [7] it was above 100 µM.

As to `COc1cc(C2c3cc4c(cc3OC(NNC(N)=O)C2C)OCO4)cc(OC)c1OC` (stereo not drawn), the TGI in [1] was 0.344 µM; in assay [8], above 89.8 µM; in [2], 0.425 µM; in assay [4], above 100 µM; in assay [9] it was above 100 µM; in assay [6] it was above 27.2 µM. The same compound showed a TGI in assay [7] above 100 µM.

Consider `COc1ccc2c(c1)N(Cc1ccc(Cl)cc1)CCC2N1CCCC1=O` (stereo not drawn), for which the GI50 (commonly the concentration giving 50% growth inhibition) in assay [1] was 4.33 µM; in assay [8], 4.22 µM; in assay [2] it was 1.67 µM; in [3] it was 3.28 µM; in assay [4], 4.84 µM; in [5], 6.37 µM. Also, the GI50 in [6] is 5.32 µM; in [7], 7.2 µM. The TGI in assay [1] is 35.8 µM; in assay [8] it was above 100 µM; in [2] it was 5.08 µM; in assay [3] it was 59.6 µM; in [4], 29.3 µM; in assay [5] it was above 100 µM. In addition, the TGI in assay [6] and in [7] was above 100 µM in each case.

Turning to `O=c1[nH]c(=O)c2ncn(-c3ccc([N+](=O)[O-])cn3)c2[nH]1`, the TGI in assay [8], in assay [2], in assay [3], in assay [4], in [9] and in [6] was above 100 µM each time. This compound returned a TGI in [7] above 100 µM.

For `CC(=O)OCC1OC(N2C(=O)NC(=O)C3C=C4CCCCC4=CC32)CC1OC(C)=O` (stereo not drawn), the TGI in assay [1], in assay [8], in assay [2], in [3], in [4] and in assay [9] was above 100 µM in each case. Also, the TGI in [5] and in [7] was above 100 µM each time.

As to `CCOC(=O)c1c(NS(=O)(=O)c2ccc(C)cc2)sc2c1CCCC2`, the TGI in [8] is 78.8 µM; in assay [2] it was above 100 µM; in assay [4], 93.8 µM; in [7], 47.6 µM.

In the case of `Nc1nc(Cl)cc(OCC2(CO)CCCC2)n1`, the TGI in assay [1], in assay [8], in assay [2], in assay [3], in [9] and in [6] was above 100 µM throughout. In assay [7], this compound displayed a TGI above 100 µM.

For the compound `CC(C)C(Nc1ncnc2nc[nH]c12)C(=O)O` (stereo not drawn), the TGI in assay [1], in [8], in [2], in assay [3], in assay [4] and in [9] was above 100 µM throughout. Moreover, the TGI in assay [5] and in [7] was above 100 µM each time.

As to `O=C1c2cc(I)ccc2N2CCN=C2N1Cc1ccccc1`, the TGI in assay [1], in assay [8], in [2], in assay [3], in assay [4] and in assay [9] was above 100 µM throughout. For the same compound, the TGI in [5] and in assay [7] was above 100 µM throughout.
